Source: patent publication US20250051347A1, “BIFUNCTIONAL CHIMERIC HETEROCYCLIC COMPOUND AND USE THEREOF AS ANDROGEN RECEPTOR DEGRADER” (Hinova Pharmaceuticals, Inc., priority 2021, published 2025)

Tests used:
[1] = target: T1, androgen receptor (AR) splicing variant AR-v7 (Homo sapiens, UniProt P10275); test: Degradation activity on androgen receptor splicing variant AR-v7 in 22RV1 cells (ELISA); format: cell-based; details: AR-v7 degradation in 22RV1 cells, 48 h, class symbols
T1 construct: The degradation activity of compounds on AR-v7 in 22RV1 cells; host or cells: 22RV1 cells
T1 sequence (P10275 1-644 isoform P10275-3): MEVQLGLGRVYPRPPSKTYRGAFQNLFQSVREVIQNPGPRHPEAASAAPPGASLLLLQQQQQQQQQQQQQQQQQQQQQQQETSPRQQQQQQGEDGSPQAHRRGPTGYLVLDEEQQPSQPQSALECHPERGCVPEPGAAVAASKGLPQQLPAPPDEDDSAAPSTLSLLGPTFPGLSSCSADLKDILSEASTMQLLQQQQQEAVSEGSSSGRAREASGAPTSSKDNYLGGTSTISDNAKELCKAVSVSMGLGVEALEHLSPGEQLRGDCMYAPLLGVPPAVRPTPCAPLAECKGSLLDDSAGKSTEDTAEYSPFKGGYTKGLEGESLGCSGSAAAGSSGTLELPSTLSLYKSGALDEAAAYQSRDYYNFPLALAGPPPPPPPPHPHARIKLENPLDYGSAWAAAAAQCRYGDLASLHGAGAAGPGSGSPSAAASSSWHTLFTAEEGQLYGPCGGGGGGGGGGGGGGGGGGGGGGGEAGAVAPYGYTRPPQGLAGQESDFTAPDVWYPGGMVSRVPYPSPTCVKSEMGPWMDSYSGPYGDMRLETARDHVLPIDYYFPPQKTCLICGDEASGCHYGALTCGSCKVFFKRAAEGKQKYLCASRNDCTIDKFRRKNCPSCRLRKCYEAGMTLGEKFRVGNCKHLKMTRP

[2] = Pharmacokinetics in mice (plasma exposure after oral administration); format: in vivo; details: mouse, ICR mice, oral (i.g.) 3 mg/kg, read-out: After oral administration of 3 mg/kg, mouse plasma exposure AUCinf
Protocol: • LC-20AD high performance liquid chromatography (SHIMADZU, Japan) • API4000 triple quadrupole mass spectrometer (Applied Biosystem, USA) • Phenix Winnolin Pharmacokinetic software (Version 6.3, Certara, USA) • High speed freezing centrifuge (Thermo Fisher Scientific) • Analytical balance (Sartorius, SECURA225D-ICN) • ICR mice (Chengdu Dossy Experimental Animals CO., LTD.)
A suitable amount of drug was accurately weighed, and then the medium (5% DMSO, 15% HS-15, 80% DSW) was added to prepare the solution at a concentration of 0.1 mg/ml (i.v.) and 0.3 mg/ml (i.g.).
18 healthy adult ICR mice were divided into two groups (9 mice for i.v. group; 9 mice for i.g. group), and administered by tail vein or by gavage after fasting overnight (free drinking water); using the satellite blood collection method, 3 animals were collected at each time point, and then 0.1 ml of blood obtained at different time points was anticoagulated with EDTA-K2, centrifuged at 4° C. for 5 min to separate the plasma, and stored at −80° C. for detection. The sampling time points after i.v. administration were 5 min, 15 min, 0.5 h, 1 h, 2 h, 4 h, 8 h, 12 h, and 24 h; while the sampling time points for i.g. group were before administration (0 h) as well as 0.5 h, 1 h, 2 h, 4 h, 6 h, 8 h, 12 h, and 24 h after administration. Then, the drug concentration in plasma was determined by LC/MS/MS.

[3] = system: 22RV1 cells; details: Homo sapiens, 22Rv1, 144 h, read-out: 22RV1 IC50 (nM), 22RV1 cells, 6 days culture, CCK-8, OD 450 nm

SMILES | DC50 [1] [nM] | AUC(0-inf) [2] [ng·h/mL] | IC50 [3] [nM]
CC(C)(c1ccc(Oc2ccnc(N3CC4(COC4)C3)n2)cc1)c1ccc(OC2CC(Nc3ccc4c(c3)C(=O)N(C3CCC(=O)NC3=O)C4=O)C2)cc1 (stereo not drawn) [Example 240, 5-((3-(4-(2-(4-((2-(2-oxa-6-azaspiro[3.3]heptan-6-yl)pyrimidin-4-yl)oxy)phenyl)propan-2-yl)phenoxy)cyclobutyl)amino)-2-(2,6-dioxopiperidin-3-yl)isoindolin-1,3-dione] | < 10 | 1000 to 5000 | 12
CC(C)(c1ccc(Oc2ccc(C#N)nn2)cc1)c1ccc(O[C@H]2C[C@H](Nc3ccc4c(c3)C(=O)N(C3CCC(=O)NC3=O)C4=O)C2)cc1 (stereo partly drawn) [Example 98, 6-(4-(2-(4-((1r,3r)-3-((2-(2,6-dioxopiperidin-3-yl)-1,3-dioxoisoindolin-5-yl)amino)cyclobutyloxy)phenyl)propan-2-yl)phenoxy) pyridazine-3-carbonitrile] | < 10 | 100 to 1000 | 4
CNC(=O)c1nccc(COc2ccc(C(C)(C)c3ccc(OCCCNc4ccc5c(c4)C(=O)N(C4CCC(=O)NC4=O)C5=O)cc3)cc2)n1 (stereo not drawn) [Example 183, 4-((4-(2-(4-(3-((2-(2,6-dioxopiperidin-3-yl)-1,3-dioxoisoindolin-5-yl)amino)propoxy)phenyl)propan-2-yl)phenoxy)methyl)-N-methylpyrimidin-2-carbonylamine] | 11 to 100 | 100 to 1000 | 20
CNC(=O)c1nccc(COc2ccc(C(C)(C)c3ccc(O[C@H]4C[C@@H](Nc5ccc6c(c5)C(=O)N(C5CCC(=O)NC5=O)C6=O)C4)cc3)cc2)n1 (stereo partly drawn) [Example 187, 4-((4-(2-(4-((1s,3s)-3-((2-(2,6-dioxopiperidin-3-yl)-1,3-dioxoisoindolin-5-yl)amino)cyclobutyloxy)phenyl)propan-2-yl)phenoxy)methyl)-N-methylpyrimidin-2-carbonylamine] | < 10 | 100 to 1000 | 6
CN(C)[C@@H]1CCN(c2nccc(COc3ccc(C(C)(C)c4ccc(O[C@H]5C[C@@H](Nc6ccc7c(c6)C(=O)N(C6CCC(=O)NC6=O)C7=O)C5)cc4)cc3)n2)C1 (stereo partly drawn) [Example 456] | < 10 | 5000 to 30000 | 12
C=CC(c1ccc(Oc2ccc(-c3noc(C)n3)nn2)cc1)c1ccc(O[C@H]2C[C@H](Nc3ccc4c(c3)C(=O)N(C3CCC(=O)NC3=O)C4=O)C2)cc1 (stereo partly drawn) [Example 259] | < 10 | 5000 to 30000 | 7
CC(O)c1ccc(Oc2ccc(C(C)(C)c3ccc(O[C@H]4C[C@H](Nc5ccc6c(c5)C(=O)N(C5CCC(=O)NC5=O)C6=O)C4)cc3)cc2)nn1 (stereo partly drawn) [Example 125] | < 10 | 5000 to 30000 | 10
Cc1nc(-c2ccc(Oc3ccc(C4(c5ccc(O[C@H]6C[C@H](Nc7ccc8c(c7)C(=O)N(C7CCC(=O)NC7=O)C8=O)C6)cc5)CCCC4)cc3)nn2)no1 (stereo partly drawn) [Example 338] | < 10 | 1000 to 5000 | 2
Cc1nc(-c2ccnc(Oc3ccc(C(C)(C)c4ccc(O[C@H]5C[C@H](Nc6ccc7c(c6)C(=O)N(C6CCC(=O)NC6=O)C7=O)C5)cc4)cc3)n2)no1 (stereo partly drawn) [Example 166] | < 10 | 5000 to 30000 | 6
O=C1CCC(N2C(=O)c3ccc(N[C@H]4C[C@H](Oc5ccc(C6(c7ccc(OCc8ccnc(N9CC%10(COC%10)C9)n8)cc7)CCCC6)cc5)C4)cc3C2=O)C(=O)N1 (stereo partly drawn) [Example 360, 5-(((1r,3r)-3-(4-(1-(4-((2-(2-oxa-6-azaspiro[3.3]heptane-6-yl)pyrimidin-4-yl)methoxy)phenyl)cyclopentyl)phenoxy)cyclobutyl)amino)-2-(2,6-dioxopiperidin-3-yl)isoindolin-1,3-dione] | < 10 | 1000 to 5000 | 4
CC(C)(c1ccc(Oc2ncc(-n3nccn3)cn2)cc1)c1ccc(O[C@H]2C[C@H](Nc3ccc4c(c3)C(=O)N(C3CCC(=O)NC3=O)C4=O)C2)cc1 (stereo partly drawn) [Example 321] | < 10 | 5000 to 30000 | 8
C=CC(c1ccc(OCc2ccnc(N3CC4(COC4)C3)n2)cc1)c1ccc(O[C@H]2C[C@H](Nc3ccc4c(c3)C(=O)N(C3CCC(=O)NC3=O)C4=O)C2)cc1 (stereo partly drawn) [Example 367] | < 10 | 1000 to 5000 | 8
CC(C)(c1ccc(Oc2cnc(C#N)nc2)cc1)c1ccc(O[C@H]2C[C@H](Nc3ccc4c(c3)C(=O)N(C3CCC(=O)NC3=O)C4=O)C2)cc1 (stereo partly drawn) [Example 97, 5-(4-(2-(4-((1r,3r)-3-((2-(2,6-dioxopiperidin-3-yl)-1,3-dioxoisoindolin-5-yl)amino)cyclobutyloxy)phenyl)propan-2-yl)phenoxy)pyrimidin-2-carbonitrile] | < 10 | 5000 to 30000 | 15
CC(C)(c1ccc(OCc2cnc(N3CC4(COC4)C3)nc2)cc1)c1ccc(O[C@H]2C[C@@H](Nc3ccc4c(c3)C(=O)N(C3CCC(=O)NC3=O)C4=O)C2)cc1 (stereo partly drawn) [Example 193] | 11 to 100 | 1000 to 5000 | 36
CC(C)(c1ccc(Oc2ccc(-n3nccn3)nc2)cc1)c1ccc(O[C@H]2C[C@H](Nc3ccc4c(c3)CN(C3CCC(=O)NC3=O)C4=O)C2)cc1 (stereo partly drawn) [Example 94] | < 10 | 1000 to 5000 | 4
CC(C)(c1ccc(CN2CC(Nc3ccc4c(c3)C(=O)N(C3CCC(=O)NC3=O)C4=O)C2)cc1)c1ccc(OCc2ccnc(N3CC4(COC4)C3)n2)cc1 (stereo not drawn) [Example 502] | < 10 | 1000 to 5000 | 12
Cc1nc(-c2nccc(COc3ccc(C(C)(C)c4ccc(O[C@H]5C[C@H](Nc6ccc7c(c6)C(=O)N(C6CCC(=O)NC6=O)C7=O)C5)cc4)cc3)n2)no1 (stereo partly drawn) [Example 279] | < 10 | 5000 to 30000 | 4
CC(=O)c1nccc(COc2ccc(C(C)(C)c3ccc(O[C@H]4C[C@H](Nc5ccc6c(c5)C(=O)N(C5CCC(=O)NC5=O)C6=O)C4)cc3)cc2)n1 (stereo partly drawn) [Example 110, 5-(((trans)-3-(4-(2-(4-((2-acetylpyrimidin-4-yl)methoxy)phenyl)propan-2-yl)phenoxy)cyclobutyl)amino)-2-(2,6-dioxopiperidin-3-yl)isoindolin-1,3-dione] | < 10 | 5000 to 30000 | 3
CC(O)c1ncc(Oc2ccc(C3(c4ccc(O[C@H]5C[C@H](Nc6ccc7c(c6)C(=O)N(C6CCC(=O)NC6=O)C7=O)C5)cc4)CC3)cc2)cn1 (stereo partly drawn) [Example 377, 2-(2,6-dioxopiperidin-3-yl)-5-(((1r,3r)-3-(4-(1-(4-((2-(1-hydroxylethyl)pyrimidin-5-yl)oxy)phenyl)cyclopropyl)phenoxy)cyclobutyl)amino)isoindolin-1,3-dione] | < 10 | 5000 to 30000 | 12
Cc1nnc(-c2ccc(Oc3ccc(C(C)(C)c4ccc(O[C@H]5C[C@H](Nc6ccc7c(c6)C(=O)N(C6CCC(=O)NC6=O)C7=O)C5)cc4)cc3)cn2)o1 (stereo partly drawn) [Example 323] | < 10 | 5000 to 30000 | 11
CC(C)(c1ccc(O[C@H]2C[C@H](Nc3ccc4c(c3)C(=O)N(C3CCC(=O)NC3=O)C4=O)C2)cc1)c1ccc(N2CCc3nc(N4CC5(COC5)C4)ncc3C2)cc1 (stereo partly drawn) [Example 195] | < 10 | 1000 to 5000 | 15
Cc1nnc(-c2ncc(Oc3ccc(C4(c5ccc(O[C@H]6C[C@H](Nc7ccc8c(c7)C(=O)N(C7CCC(=O)NC7=O)C8=O)C6)cc5)CCCC4)cc3)cn2)o1 (stereo partly drawn) [Example 483] | < 10 | 5000 to 30000 | 2
CC(C)(c1ccc(O[C@H]2C[C@@H](Nc3ccc4c(c3)C(=O)N(C3CCC(=O)NC3=O)C4=O)C2)cc1)c1ccc(N2CCc3cnc(N4CC5(COC5)C4)nc3C2)cc1 (stereo partly drawn) [Example 190] | < 10 | 5000 to 30000 | 12
